Reference: PubChem BioAssay (NCI)
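Dose response: 5 concentrations. Exposure: 48 h. Format: 96-well plates. Endpoint: linear interpolation; highest concentration if not reached. The concentration for 50% growth inhibition is given as GI50. Definition used: TGI = concentration required for complete inhibition of growth.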

Tests used:
Assay in all cases: DTP human tumour cell line panel, 48 h
RPMI-8226 leukemia = test system: RPMI-8226 leukemia
OVCAR-5 ovarian = test system: OVCAR-5 ovarian
SF-295 CNS = test system: SF-295 CNS
HCT-116 colon = test system: HCT-116 colon
SR leukemia = test system: SR leukemia
U251 CNS = test system: U251 CNS
SK-MEL-2 melanoma = test system: SK-MEL-2 melanoma
KM12 colon = test system: KM12 colon
OVCAR-8 ovarian = test system: OVCAR-8 ovarian
HOP-92 NSCLC = test system: HOP-92 NSCLC
SF-268 CNS = test system: SF-268 CNS
HCT-15 colon = test system: HCT-15 colon
NCI-H23 lung = test system: NCI-H23 lung
NCI-H226 lung = test system: NCI-H226 lung
SW-620 colon = test system: SW-620 colon
PC-3 prostate = test system: PC-3 prostate
M14 melanoma = test system: M14 melanoma
ACHN renal = test system: ACHN renal
NCI/ADR-RES ovarian = test system: NCI/ADR-RES ovarian
K-562 leukemia = test system: K-562 leukemia
MDA-MB-231 breast = test system: MDA-MB-231 breast
SK-OV-3 ovarian = test system: SK-OV-3 ovarian
RXF 393 renal = test system: RXF 393 renal
UACC-62 melanoma = test system: UACC-62 melanoma
HCC-2998 colon = test system: HCC-2998 colon
A498 renal = test system: A498 renal
HOP-62 NSCLC = test system: HOP-62 NSCLC
UO-31 renal = test system: UO-31 renal
CCRF-CEM leukemia = test system: CCRF-CEM leukemia
BT-549 breast = test system: BT-549 breast
T-47D breast = test system: T-47D breast
NCI-H522 lung = test system: NCI-H522 lung
HL-60(TB) leukemia = test system: HL-60(TB) leukemia
CAKI-1 renal = test system: CAKI-1 renal
NCI-H460 lung = test system: NCI-H460 lung
SNB-19 CNS = test system: SNB-19 CNS
786-0 renal = test system: 786-0 renal
SK-MEL-28 melanoma = test system: SK-MEL-28 melanoma
HS 578T breast = test system: HS 578T breast
SF-539 CNS = test system: SF-539 CNS
TK-10 renal = test system: TK-10 renal
DU-145 prostate = test system: DU-145 prostate
EKVX NSCLC = test system: EKVX NSCLC
HT29 colon = test system: HT29 colon
OVCAR-4 ovarian = test system: OVCAR-4 ovarian
IGROV1 ovarian = test system: IGROV1 ovarian
A549 NSCLC = test system: A549 NSCLC
SN12C renal = test system: SN12C renal
MOLT-4 leukemia = test system: MOLT-4 leukemia
LOX IMVI melanoma = test system: LOX IMVI melanoma
MCF7 breast = test system: MCF7 breast
MDA-MB-435 = test system: MDA-MB-435
MALME-3M melanoma = test system: MALME-3M melanoma
UACC-257 melanoma = test system: UACC-257 melanoma

CC(C)(C)c1cc(NC(=O)Nc2ccc(-c3cn4c5c(sc4n3)CCc3cn(CCCN4CCCCC4)cc3-5)cc2)no1
GI50 (RPMI-8226 leukemia): 2360 nM
TGI (RPMI-8226 leukemia): 6280 nM
GI50 (OVCAR-5 ovarian): 1750 nM
TGI (OVCAR-5 ovarian): 3180 nM
GI50 (SF-295 CNS): 1730 nM
TGI (SF-295 CNS): 3250 nM
GI50 (HCT-116 colon): 1670 nM
TGI (HCT-116 colon): 3220 nM
GI50 (SR leukemia): 2130 nM
TGI (SR leukemia): 6770 nM
GI50 (U251 CNS): 1470 nM
TGI (U251 CNS): 2880 nM
GI50 (SK-MEL-2 melanoma): > 100000 nM
TGI (SK-MEL-2 melanoma): > 100000 nM
GI50 (KM12 colon): 1900 nM
TGI (KM12 colon): 3830 nM
GI50 (OVCAR-8 ovarian): 2270 nM
TGI (OVCAR-8 ovarian): 5260 nM
GI50 (HOP-92 NSCLC): 1420 nM
TGI (HOP-92 NSCLC): 2820 nM
GI50 (SF-268 CNS): 1810 nM
TGI (SF-268 CNS): 3890 nM
GI50 (HCT-15 colon): 1660 nM
TGI (HCT-15 colon): 3300 nM
GI50 (NCI-H23 lung): 1820 nM
TGI (NCI-H23 lung): 3520 nM
GI50 (NCI-H226 lung): > 100000 nM
TGI (NCI-H226 lung): > 100000 nM
GI50 (SW-620 colon): 1800 nM
TGI (SW-620 colon): 3360 nM
GI50 (PC-3 prostate): 1710 nM
TGI (PC-3 prostate): 3230 nM
GI50 (M14 melanoma): 1710 nM
TGI (M14 melanoma): 3150 nM
GI50 (ACHN renal): 1790 nM
TGI (ACHN renal): 3210 nM
GI50 (NCI/ADR-RES ovarian): 2090 nM
TGI (NCI/ADR-RES ovarian): 4730 nM
GI50 (K-562 leukemia): 2570 nM
TGI (K-562 leukemia): > 100000 nM
GI50 (MDA-MB-231 breast): 1950 nM
TGI (MDA-MB-231 breast): 3730 nM
GI50 (SK-OV-3 ovarian): 1720 nM
TGI (SK-OV-3 ovarian): 3280 nM
GI50 (RXF 393 renal): 1600 nM
TGI (RXF 393 renal): 3100 nM
GI50 (UACC-62 melanoma): > 100000 nM
TGI (UACC-62 melanoma): > 100000 nM
GI50 (HCC-2998 colon): 1910 nM
TGI (HCC-2998 colon): 3770 nM
GI50 (A498 renal): 1760 nM
TGI (A498 renal): 3150 nM
GI50 (HOP-62 NSCLC): 1900 nM
TGI (HOP-62 NSCLC): 3750 nM
GI50 (UO-31 renal): 1600 nM
TGI (UO-31 renal): 3000 nM
GI50 (CCRF-CEM leukemia): 2010 nM
TGI (CCRF-CEM leukemia): 6440 nM
GI50 (BT-549 breast): 1750 nM
TGI (BT-549 breast): 3290 nM
GI50 (T-47D breast): 1790 nM
TGI (T-47D breast): 3850 nM
GI50 (NCI-H522 lung): 1890 nM
TGI (NCI-H522 lung): 3740 nM
GI50 (HL-60(TB) leukemia): 1880 nM
TGI (HL-60(TB) leukemia): 6270 nM
GI50 (CAKI-1 renal): 1640 nM
TGI (CAKI-1 renal): 3120 nM
GI50 (NCI-H460 lung): 1800 nM
TGI (NCI-H460 lung): 3640 nM
GI50 (SNB-19 CNS): 1820 nM
TGI (SNB-19 CNS): 3340 nM
GI50 (786-0 renal): 1760 nM
TGI (786-0 renal): 3210 nM
GI50 (SK-MEL-28 melanoma): 1820 nM
TGI (SK-MEL-28 melanoma): 3250 nM
GI50 (HS 578T breast): 1820 nM
TGI (HS 578T breast): 3850 nM
GI50 (SF-539 CNS): 1740 nM
TGI (SF-539 CNS): 3180 nM
GI50 (TK-10 renal): 1820 nM
TGI (TK-10 renal): 3270 nM
GI50 (DU-145 prostate): 1770 nM
TGI (DU-145 prostate): 3170 nM
GI50 (EKVX NSCLC): 1790 nM
TGI (EKVX NSCLC): 3230 nM
GI50 (HT29 colon): 1990 nM
TGI (HT29 colon): 3910 nM
GI50 (OVCAR-4 ovarian): 1780 nM
TGI (OVCAR-4 ovarian): 3590 nM
GI50 (IGROV1 ovarian): 1960 nM
TGI (IGROV1 ovarian): 3820 nM
GI50 (A549 NSCLC): 1830 nM
TGI (A549 NSCLC): 3470 nM
GI50 (SN12C renal): 1850 nM
TGI (SN12C renal): 3490 nM
GI50 (MOLT-4 leukemia): 1930 nM
TGI (MOLT-4 leukemia): 6830 nM
GI50 (LOX IMVI melanoma): 1800 nM
TGI (LOX IMVI melanoma): 3300 nM
GI50 (MCF7 breast): 1750 nM
TGI (MCF7 breast): 3810 nM
GI50 (MDA-MB-435): 1730 nM
TGI (MDA-MB-435): 3170 nM
GI50 (MALME-3M melanoma): 1710 nM
TGI (MALME-3M melanoma): 3380 nM
GI50 (UACC-257 melanoma): 1790 nM
TGI (UACC-257 melanoma): 3500 nM
